This note sets out measurements from ChEMBL document CHEMBL5154770, “Discovery of novel ataxia telangiectasia mutated (ATM) kinase modulators: Computational simulation, biological evaluation and cancer combinational chemotherapy study” (Eur J Med Chem, 2022).

The target of data set [1] is T1, Serine-protein kinase ATM (Homo sapiens, UniProt Q13315). In words: Binding affinity towards ATM (unknown origin) assessed as increase in thermal stability of ATM at 30 uM measured by thermal shift assay.
In data set [2] the target is T1, Serine-protein kinase ATM. In words: Inhibition of ATM in human MCF7 cells assessed as increase in pATM level at 12.5 to 18 uM measured by western blot analysis. Type of data set: cell-based. To be noted: dose 12.5-18 µM.
Data set [3] concerns the target T1, Serine-protein kinase ATM. In words: Inhibition of ATM in human MCF7 cells assessed as decrease in pKAP-1 level measured by In-cell western assay. The class given is cell-based.
For another data set, the system named is HEK293. Description: Cytotoxicity against human HEK293 cells at 100 uM. The class given is toxicity, cell-based. To be noted: hek293, 100 µM.
Data set [4] has as its system SW480. Description: Antiproliferative activity against human SW480 cells measured after 3 days by SRB assay. The class given is functional, cell-based. As to conditions: SW480, 72 h.
The subject of data set [5] is SW480. In words: Antiproliferative activity against human SW480 cells measured after 9 days by SRB assay. As to conditions: SW480, 216 h. Type of data set: functional, cell-based.
In the next data set the test system is MDCK. In words: Cytotoxicity against dog MDCK cells at 100 uM. The class given is toxicity, cell-based, Canis lupus familiaris.
Data set [6] deals with MCF7. Description: Antiproliferative activity against human MCF7 cells measured after 2 days by SRB assay. The class given is functional, cell-based. As to conditions: MCF7, 48 h. For orientation: The SRB assay estimates cell density from bound dye.
A short description of data set [7]: Toxicity in BALB/c nude mouse xenografted with human SW480 cells assessed as effect on body weight at 30 mg/kg, iv. Type of data set: organism-based. To be noted: in vivo.
The target in data set [8] is T1, Serine-protein kinase ATM. In words: Inhibition of ATM in human MCF7 cells assessed as increase in pKAP1 level at 12.5 to 18 uM measured by western blot analysis. Type of data set: cell-based. As to conditions: dose 12.5-18 µM. On the technique in general: Immunoblotting shows a protein as a band on a membrane.
Data set [9] concerns MCF7. In words: Antiproliferative activity against human MCF7 cells measured after 6 days by SRB assay. Type of data set: functional, cell-based. To be noted: MCF7, 144 h.
For data set [10], the target named is T1, Serine-protein kinase ATM. In words: Competitive inhibition of ATM (unknown origin) measured by ATP-competitive binding assay.
For data set [11], the target named is T1, Serine-protein kinase ATM. Description: Activation of ATM in human MCF7 cells assessed as increase in pATM level at 30 uM in presence of 25 uM etoposide measured by western blot analysis. The class given is cell-based. As to conditions: filed as activator.
In data set [12] the test system is MCF7. Description: Antiproliferative activity against human MCF7 cells assessed as growth inhibition at 100 uM measured after 2 days by SRB assay. Type of data set: functional. To be noted: MCF7, 48 h, time 2 day, read-out: GI.
Data set [13] has as its system SW480. In words: Antiproliferative activity against human SW480 cells assessed as growth inhibition at 100 uM measured after 3 days by SRB assay. The class given is functional. As to conditions: SW480, 72 h, time 3 day, read-out: GI.
Data set [14] deals with T1, Serine-protein kinase ATM. In words: Activation of ATM in human MCF7 cells assessed as increase in pKAP1 level at 30 uM in presence of 25 uM etoposide measured by western blot analysis. To be noted: filed as activator. Type of data set: cell-based.
Data set [15] deals with T1, Serine-protein kinase ATM. Description: Activation of ATM in human MCF7 cells assessed as increase in pKAP-1 level at 0.001 to 100 uM measured by In-cell western assay. To be noted: filed as activator, dose 0.001-100 µM. Type of data set: cell-based.

pIC50: −log10 of the molar value. The source made the active and inactive calls. The rule behind the calls is not given here. A value given as a limit tells only on which side of the number the result lay.

T1 sequence (Q13315 whole entry): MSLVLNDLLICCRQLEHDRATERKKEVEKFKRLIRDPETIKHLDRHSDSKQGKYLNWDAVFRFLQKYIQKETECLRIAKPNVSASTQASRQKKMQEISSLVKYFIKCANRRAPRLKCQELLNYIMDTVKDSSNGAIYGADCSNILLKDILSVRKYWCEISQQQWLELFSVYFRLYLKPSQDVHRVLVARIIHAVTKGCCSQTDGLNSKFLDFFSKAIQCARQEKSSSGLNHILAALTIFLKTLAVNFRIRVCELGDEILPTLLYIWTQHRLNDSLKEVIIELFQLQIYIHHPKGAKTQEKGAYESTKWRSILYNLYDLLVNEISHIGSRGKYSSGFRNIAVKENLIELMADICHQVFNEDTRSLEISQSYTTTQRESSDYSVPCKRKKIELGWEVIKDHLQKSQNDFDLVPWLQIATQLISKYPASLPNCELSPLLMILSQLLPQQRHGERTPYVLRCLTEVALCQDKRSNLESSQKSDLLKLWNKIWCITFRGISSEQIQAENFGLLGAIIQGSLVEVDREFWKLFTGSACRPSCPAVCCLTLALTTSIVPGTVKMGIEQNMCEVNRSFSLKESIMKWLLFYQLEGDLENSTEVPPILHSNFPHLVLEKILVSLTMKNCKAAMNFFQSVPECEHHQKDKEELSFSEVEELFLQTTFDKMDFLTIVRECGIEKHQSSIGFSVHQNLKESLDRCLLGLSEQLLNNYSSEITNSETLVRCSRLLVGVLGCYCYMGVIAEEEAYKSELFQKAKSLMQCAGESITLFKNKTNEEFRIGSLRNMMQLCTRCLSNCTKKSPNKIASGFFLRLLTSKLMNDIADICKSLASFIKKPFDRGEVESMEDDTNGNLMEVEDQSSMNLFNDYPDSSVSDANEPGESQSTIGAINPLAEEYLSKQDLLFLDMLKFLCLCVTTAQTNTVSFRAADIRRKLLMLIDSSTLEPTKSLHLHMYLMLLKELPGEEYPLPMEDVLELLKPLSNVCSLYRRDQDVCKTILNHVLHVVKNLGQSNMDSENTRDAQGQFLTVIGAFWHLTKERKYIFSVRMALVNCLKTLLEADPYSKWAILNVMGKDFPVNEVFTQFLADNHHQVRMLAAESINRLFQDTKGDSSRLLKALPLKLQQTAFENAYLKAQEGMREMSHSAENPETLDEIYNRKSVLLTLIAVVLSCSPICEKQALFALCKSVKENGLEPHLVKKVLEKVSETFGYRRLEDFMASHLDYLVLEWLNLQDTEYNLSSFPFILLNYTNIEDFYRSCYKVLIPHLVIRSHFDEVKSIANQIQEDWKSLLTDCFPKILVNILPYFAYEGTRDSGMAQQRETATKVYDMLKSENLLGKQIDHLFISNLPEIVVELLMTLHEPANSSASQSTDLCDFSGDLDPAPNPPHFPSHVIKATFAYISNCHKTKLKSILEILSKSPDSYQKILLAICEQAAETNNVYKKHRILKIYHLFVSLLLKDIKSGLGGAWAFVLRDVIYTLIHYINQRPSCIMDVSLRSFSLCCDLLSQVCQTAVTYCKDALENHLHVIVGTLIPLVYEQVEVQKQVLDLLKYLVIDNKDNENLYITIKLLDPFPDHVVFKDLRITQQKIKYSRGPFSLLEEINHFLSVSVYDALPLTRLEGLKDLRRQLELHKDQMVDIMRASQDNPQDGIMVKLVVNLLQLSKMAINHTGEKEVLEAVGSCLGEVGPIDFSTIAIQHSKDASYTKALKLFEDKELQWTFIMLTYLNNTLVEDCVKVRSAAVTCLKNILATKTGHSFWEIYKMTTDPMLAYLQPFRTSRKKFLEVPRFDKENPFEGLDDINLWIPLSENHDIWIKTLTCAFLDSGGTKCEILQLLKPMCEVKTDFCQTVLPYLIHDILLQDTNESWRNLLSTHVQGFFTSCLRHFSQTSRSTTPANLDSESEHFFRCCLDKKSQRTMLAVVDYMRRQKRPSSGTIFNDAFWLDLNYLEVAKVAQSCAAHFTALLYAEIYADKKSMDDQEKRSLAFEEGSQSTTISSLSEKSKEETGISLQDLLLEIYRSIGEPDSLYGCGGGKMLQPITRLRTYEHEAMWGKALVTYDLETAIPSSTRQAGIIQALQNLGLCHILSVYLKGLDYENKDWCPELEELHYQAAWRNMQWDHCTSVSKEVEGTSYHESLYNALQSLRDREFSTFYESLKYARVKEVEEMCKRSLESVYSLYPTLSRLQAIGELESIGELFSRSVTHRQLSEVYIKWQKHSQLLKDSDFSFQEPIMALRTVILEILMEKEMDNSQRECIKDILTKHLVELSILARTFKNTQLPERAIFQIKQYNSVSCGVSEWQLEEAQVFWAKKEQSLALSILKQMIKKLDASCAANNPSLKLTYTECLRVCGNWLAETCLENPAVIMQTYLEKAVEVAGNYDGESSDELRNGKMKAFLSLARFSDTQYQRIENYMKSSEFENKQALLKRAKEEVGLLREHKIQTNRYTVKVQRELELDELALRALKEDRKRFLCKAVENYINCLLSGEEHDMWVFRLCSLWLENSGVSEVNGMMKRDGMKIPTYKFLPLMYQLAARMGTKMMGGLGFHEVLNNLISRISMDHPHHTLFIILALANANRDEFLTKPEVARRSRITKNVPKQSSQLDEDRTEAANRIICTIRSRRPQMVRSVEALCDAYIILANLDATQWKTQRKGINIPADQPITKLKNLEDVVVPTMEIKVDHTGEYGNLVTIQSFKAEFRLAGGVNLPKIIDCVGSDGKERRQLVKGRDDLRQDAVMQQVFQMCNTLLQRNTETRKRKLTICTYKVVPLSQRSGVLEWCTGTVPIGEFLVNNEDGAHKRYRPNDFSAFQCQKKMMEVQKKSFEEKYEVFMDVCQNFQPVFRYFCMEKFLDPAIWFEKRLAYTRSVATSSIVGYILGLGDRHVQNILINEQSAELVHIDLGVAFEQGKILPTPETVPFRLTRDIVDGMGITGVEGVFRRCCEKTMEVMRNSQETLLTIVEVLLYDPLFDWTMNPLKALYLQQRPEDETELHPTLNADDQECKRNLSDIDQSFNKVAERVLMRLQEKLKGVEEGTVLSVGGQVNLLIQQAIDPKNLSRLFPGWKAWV

As usually defined, the pIC50 is the IC50 on a negative log10 scale, so that one unit is a factor of ten. `OCCNCc1c(OCc2ccc(Cl)cc2Cl)ccc2ccccc12`: the outcome in data set [1] was Active. Also, the inhibition result in data set [2] and in data set [8] was “Active” throughout. In addition, the pIC50 is 4.48 in data set [3]; 5.31 in the data set on SW480 [4]; 5.26 in the data set on SW480 [5]; 5.20 in the data set with MCF7 [6]; 4.67 in the data set with MCF7 [9]. Further, the Activity result (with HEK293; in the data set with MDCK; in [7]) was “Non-Toxic” throughout.

For the compound `CNC(=O)c1ccc(-c2cnc3cnc(-c4ccccc4)cn23)cc1`, the pIC50 in data set [10] was 6.51.

In the case of `COc1ccc(C(=O)NC(=S)Nc2cccc(-c3nc4ncccc4o3)c2)cc1Cl`, the outcome in data set [1] (filed as activator), in [11], in data set [14] and in [15] was Active. The Activity entry in the data set on HEK293 and in the data set with MDCK was “Non-Toxic” each time. In addition, the pIC50 in the data set with SW480 [4] and in the data set with MCF7 [6] was below 4.00 each time. Further, the inhibition of growth at 100 µM in the data set on MCF7 [12] and with SW480 [13] was below 20% throughout.

Consider `O=c1cc(-c2cccc3c2Sc2ccccc2S3)oc(N2CCOCC2)c1` [KU-55933], for which the Activity entry in the data set with HEK293 and with MDCK was “Non-Toxic” in each case. The pIC50 in the data set with SW480 [4] was 4.58; in the data set with MCF7 [6], 4.61.

`C[C@@H]1CN(CC(=O)Nc2ccc3c(c2)Cc2cccc(-c4cc(=O)cc(N5CCOCC5)o4)c2S3)C[C@H](C)O1`: the Activity entry in the data set on HEK293 and with MDCK was “Non-Toxic” throughout. Besides, the pIC50 was 4.88 in the data set with SW480 [4], 5.48 with SW480 [5], 4.92 with MCF7 [6] and 5.55 in the data set on MCF7 [9].

Turning to `CCN(CC)CCCC(C)Nc1ccnc2cc(Cl)ccc12` (stereo not drawn) [CHLOROQUINE], the results for the pIC50 in the data set with SW480 [4] and in the data set on MCF7 [6] were 4.83 and 4.88, respectively.

Turning to `CN(C)CCCOc1ccc(-c2ccc3ncc4c(c3c2)n(C2CCOCC2)c(=O)n4C)cn1`, the Activity result in the data set on HEK293 and in the data set with MDCK was “Non-Toxic” each time. Besides, the figures for the pIC50 with SW480 [4] and with MCF7 [6] were 5.96 and 6.22, respectively.
